This note sets out measurements from ChEMBL document CHEMBL3576844, “Melanin-concentrating hormone receptor 1 antagonists for treatment of obesity” (ACS Med Chem Lett, 2015).

Data set [1] has as its target Melanin-concentrating hormone receptor 1 (Homo sapiens) (UniProt Q99705). Put plainly: Displacement of [125I]-MCH (4 to 19) from human MCH1 receptor expressed in CHO cell membranes at 0.1 uM after 1 hr by liquid scintillation counting analysis relative to control. (In general: Displacement assays read how much labelled ligand stays bound in the presence of the test substance.)

For data set [2] the target is unchanged. In words: Antagonist activity at human MCH1 receptor expressed in CHO cell membranes assessed as inhibition of MCH (4 to 19)-stimulated calcium mobilization at 0.1 uM measured every 2 secs by fluorometric analysis relative to control. The class given is functional, cell-based. Background: Calcium assays in cells follow changes in intracellular calcium, usually with a dye or a luminescent sensor.

The target of data set [3] is hERG (KCNH2) (Homo sapiens, UniProt Q12809). Put plainly: Inhibition of human ERG expressed in CHO cells at 10 uM after 5 mins by IonWorks assay relative to control. As to conditions: CHO cells expressing human ERG. In general terms: In patch-clamp work, channel activity is measured electrically.
hERG (KCNH2), sequence (Q12809 whole entry): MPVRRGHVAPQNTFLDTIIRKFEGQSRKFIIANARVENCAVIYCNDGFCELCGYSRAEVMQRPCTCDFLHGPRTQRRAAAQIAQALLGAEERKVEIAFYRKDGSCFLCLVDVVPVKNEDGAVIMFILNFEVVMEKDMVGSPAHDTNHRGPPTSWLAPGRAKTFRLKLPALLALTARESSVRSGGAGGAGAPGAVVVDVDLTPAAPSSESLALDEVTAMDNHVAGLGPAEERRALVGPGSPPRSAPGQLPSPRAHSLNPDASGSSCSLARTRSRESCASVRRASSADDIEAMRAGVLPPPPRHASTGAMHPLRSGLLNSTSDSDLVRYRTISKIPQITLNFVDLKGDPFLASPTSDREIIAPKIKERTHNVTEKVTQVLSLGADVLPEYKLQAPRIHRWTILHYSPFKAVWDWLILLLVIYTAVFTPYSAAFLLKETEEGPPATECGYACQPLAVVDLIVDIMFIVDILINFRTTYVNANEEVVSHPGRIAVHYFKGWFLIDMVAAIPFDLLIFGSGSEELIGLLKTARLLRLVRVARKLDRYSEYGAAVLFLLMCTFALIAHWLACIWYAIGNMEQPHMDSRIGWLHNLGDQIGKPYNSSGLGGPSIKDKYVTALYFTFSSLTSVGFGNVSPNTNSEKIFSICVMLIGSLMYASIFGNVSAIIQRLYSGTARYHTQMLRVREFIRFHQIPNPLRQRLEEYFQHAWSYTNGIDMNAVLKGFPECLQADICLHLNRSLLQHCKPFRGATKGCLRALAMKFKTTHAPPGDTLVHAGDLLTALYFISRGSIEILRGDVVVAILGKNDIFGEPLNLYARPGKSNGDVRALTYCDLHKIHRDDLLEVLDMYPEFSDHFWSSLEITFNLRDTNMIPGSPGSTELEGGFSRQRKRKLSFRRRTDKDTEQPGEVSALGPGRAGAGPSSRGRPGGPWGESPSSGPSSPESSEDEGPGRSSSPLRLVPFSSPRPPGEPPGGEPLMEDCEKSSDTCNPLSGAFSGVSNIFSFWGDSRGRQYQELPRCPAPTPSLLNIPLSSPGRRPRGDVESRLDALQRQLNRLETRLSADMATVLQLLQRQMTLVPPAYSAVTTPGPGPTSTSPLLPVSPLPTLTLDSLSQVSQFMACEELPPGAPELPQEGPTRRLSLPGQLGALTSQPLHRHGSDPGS

Melanin-concentrating hormone receptor 1 (Homo sapiens), sequence (Q99705 whole entry): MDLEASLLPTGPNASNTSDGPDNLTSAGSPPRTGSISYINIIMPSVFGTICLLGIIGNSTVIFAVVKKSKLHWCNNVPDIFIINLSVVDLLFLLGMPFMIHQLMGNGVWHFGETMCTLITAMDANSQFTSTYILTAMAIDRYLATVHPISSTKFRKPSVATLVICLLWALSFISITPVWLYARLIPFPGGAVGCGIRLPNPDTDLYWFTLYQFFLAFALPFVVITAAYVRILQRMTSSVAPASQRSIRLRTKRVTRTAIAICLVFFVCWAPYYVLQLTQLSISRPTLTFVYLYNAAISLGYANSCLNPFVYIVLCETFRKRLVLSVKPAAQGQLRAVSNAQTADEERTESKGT

With `Cc1c2cc(-n3ccc(OCc4csc(C(F)(F)F)c4)cc3=O)ccc2nn1C1CC1`, the inhibition (in general, the relative decrease from the control value, in per cent) in data set [1] was determined as 77%; in data set [2], 55%.
Take `Cc1c2cc(-n3ccc(OCc4ccc(Cl)cc4)cc3=O)ccc2nn1C`: the inhibition is 72% in data set [1] and 83% in data set [2]. In data set [3], this molecule returned an inhibition at 5 min, 10 µM of 22.1%.
Turning to `Cc1c2cc(-n3ccc(OCc4ccc(F)cc4)cc3=O)ccc2nn1C1CC1`, the inhibition is 72% in data set [1] and 70% in data set [2].
As to `Cc1c2cc(-n3ccc(OCc4csc(C(F)(F)F)n4)cc3=O)ccc2nn1C1CC1`, the inhibition in data set [1] came out at 50%; in data set [2], 78%.
